Data as given in US20230125429A1 (priority 2017, published 2023).
Entries after “also recorded” stand apart in the source; their conditions may differ.

Legend:
LO2 = experiment: Growth inhibitory effect, one hour exposure (IncuCyte Zoom); format: cell-based, human; conditions: LO2, immortalized hepatocytes
HepG2 = format: cell-based, human
[1] = system: HepG2-GFP orthotopic xenograft tumor
ERK phosphorylation = ERK phosphorylation in HepG2 cells (Western blot); format: cell-based, human; conditions: serum-starved HepG2; trypsin 50 nM, Triptolide 1 µM, Triptonide 1 µM; 0-40 minutes
cAMP = experiment: Measurement of cAMP levels in HepG2 cells; format: cell-based, human
GES-1 = experiment: Growth inhibitory effect, one hour exposure (IncuCyte Zoom); format: cell-based, human; conditions: GES-1, immortalized gastric epithelium
[2] = system: mimosine treated HepG2 cells; experiment: Cell cycle analysis by flow cytometry (PI staining); format: cell-based, human; conditions: for G2/M cells: 1 µM
UACC-257 = experiment: Growth inhibitory effect, one hour exposure (IncuCyte Zoom); format: cell-based, human; conditions: UACC-257, Melanoma
Description: (§1) Cancer cell lines and immortalized human cell lines were cultured in 1640 tissue culture medium (Corning, USA) with 10% fetal bovine serum in a standard tissue culture condition of 37° C. and 5% CO2.
(§2) For primary hepatocytes, the seeded cells were monitored for up to 48 hours either without any treatment (as a control) or with various types of treatments. For primary keratinocytes, cells in 48-well plates were monitored either without any treatment or with various types of treatment for up to 96 hours. For HepG2, cells 96-well plates were monitored either without any treatment or with various types of treatments for up to 48 hours. The IncuCyte Zoom was set to take a set of images at fixed locations (4 per well for 96-well plates and 16 per well for 48-well plates and 12-well plates) every three hours.
(§3) The one-hour exposure is intended to simulate the transient high concentrations within the liver as the results of either the first pass effects of some orally administered drugs, or of locally delivered drugs, anticipating that such a short term exposure is nevertheless sufficient to affect certain cell surface receptors without causing any significant off-target effects due to intracellular absorption. Such a strategy would also reduce false hits due to reversible cell cycle arrests.
(§4) To address this possibility, we investigated whether other cell lines, including other HCC cell lines, cell lines from other type of cancers, as well as non-cancer immortalized/transformed cell lines, were also sensitive to Triptonide. Specifically, a total of 51 human cancer cell lines, representing 10 types of human cancers (6 non-small cell lung cancer cell lines, 5 colon cancer cell lines, 5 central nerve system cancer cell lines, 8 Melanomas cell lines, 4 ovarian cancer cell lines, 4 renal cancer cell lines, 2 prostate cancer cell lines, 3 breast cancer cell lines, 7 hepatocellular carcinoma cell lines, and 4 gastric cancer cell lines) were analyzed.

NCI/ADR-RES = experiment: as above; format: cell-based, human; conditions: Ovarian
Description: as §1, §2, §3, §4

U251 = experiment: as above; format: cell-based, human; conditions: U251, CNS
Description: as §1, §2, §3, §4

A498 = experiment: as above; format: cell-based, human; conditions: A498, Renal
Description: as §1, §2, §3, §4

[3] = system: serum starved HepG2 cells; format: cell-based, human
[4] = system: phosphorylated histone H3 (p-H3); experiment: Histone H3 phosphorylation in HepG2 cells (Western blot); format: cell-based, human; conditions: 1 µM for 1 hour, 2 hours after mimosine release; monitored to hour 12
Description: HepG2 cells were synchronized by mimosine for 28 hours and released into regular culture medium for 2 hours. […] After the treatment, cells were incubated in the regular culture condition and samples were harvested every hour from 2 to 12 hours (shown on top of the top panel). Western blots were performed to determine the relative levels of phosphorylated histone H3 (p-H3), CDK1 and beta actin (ATCB) (as controls).
After treatments, cells were harvested and protein extracts were prepared by lysis in RIPA buffer (Solarbio). Western blots were performed using specific antibodies and SuperSignal® West Pico Chemiluminescent Substrate (Pierce). Antibodies were purchased from commercial venders as described below: polyclonal rabbit anti-PAR2 antibodies (ABGENT), polyclonal rabbit anti-Beta-Actin antibodies (Cell Signaling Technology), anti-ERK (Cell Signaling Technology), anti-phosphorylated ERK (Cell Signaling Technology), anti-phosphorylated histone H3 (Abchem), anti-CDK1 (Abcam).
After the Triptonide treatments, cells were returned to regular culture condition and samples were harvested at various time points for Western blot analysis.

[5] = system: HepG2-based orthotopic xenograft tumor; parameters: species or system nude mice; conditions: mouse, in vivo

For `CC(C)[C@]12O[C@H]1[C@@H]1O[C@@]13[C@@]1(C)CCC4=C(COC4=O)[C@@H]1C[C@@H]1O[C@@]13C2=O` [Triptonide], the IC50 (LO2) was 642 nM, the “effect of continuous exposure on HepG2” value (HepG2) was “complete death” and the “average body weight of the animals” value ([1]; 25 mg/kg by gavage every other day) was “did not have any significant impact”. For the same molecule, the “tumor specific signals during follow-up” value ([1]; remaining mice, another four months without further treatments) was “No tumor specific signals were ever detected again”, the autopsy for tumors ([1]; six of the treated mice) was “did not reveal any signs of tumors” and the “effect of continuous exposure on PMHs” value (PMHs) was “complete death”. The “toxic effect on PMHs” value (PMHs) was “no significant toxic effect”, the “levels of phosphorylated ERK” value (ERK phosphorylation) was “only an acute transient increase” and the “amplitude of cAMP elevation versus control” value (cAMP; 1 µM at 2 hours after mimosine treatment, serum-free) was “about 4 folds”. The “levels of cAMP” value (cAMP; 1 µM at non-sensitive time, 4 hours after mimosine treatment) was “modest elevation”, the “levels of cAMP” value (cAMP; treatment 2 hours after mimosine, Trypsin 50 nM, Triptonide 1 µM, serum-free) was “two waves of elevation” and the IC50 (GES-1) was 16.7 µM. It also gave a G2/M cells ([2]; 11 hours after mimosine release) of 82%, a G2/M cells ([2]; 24 hours after mimosine release) of 80% and a G2/M cells ([2]; 37 hours after mimosine release) of 78%. The “sub-G1 (<2N, apoptotic) population” value ([2]; 10 µM, by 24 hours) was “significant peaks of the sub-G1”, the IC50 (UACC-257) was 16 µM and the IC50 (NCI/ADR-RES) was 8.34 µM. For the same molecule, the IC50 (U251) was 43.2 µM, the IC50 (A498) was 4.34 µM and the “cells exhibiting the features of mitotic catastrophe” value [3] was “approximately 60%”. For the same molecule, the “effect on growth of serum starved HepG2 cells” value [3] was “no significant impacts; also recorded: growth inhibitory only when it was administered at the 0 and 2 hours after the starvation”, the “level of histone H3 phosphorylation” value [4] was “remained very low” and the “intensities of the tumor specific signal / tumor mass” value [5] was “very effective in reducing the tumor mass; also recorded: reduced the tumor specific signal to the background level”.
